Measured values from patent US20160222021A1, “ARYL ETHER-BASE KINASE INHIBITORS” (BRISTOL-MYERS SQUIBB COMPANY, priority 2013, published 2016).

Each molecule was assayed against T1, GST-Xa-hAAK1 (Homo sapiens, UniProt Q2M2I8) (assay: AAK1 Kinase Assay). Details: ATP 22 μM; IC50 ranges.
T1 construct: made in house
Format: biochemical
Method: The assays were performed in U-bottom 384-well plates. The final assay volume was 30 μl prepared from 15 μl additions of enzyme and substrates (fluoresceinated peptide (5-FAM)-Aha-[…]-NH2 and ATP) and test compounds in assay buffer (10 mM Tris-HCL pH 7.4, 10 mM MgCl2, 0.01% Tween-20 and 1.0 mM DTT). The reactions were initiated by the combination of bacterially expressed, GST-Xa-hAAK1 with substrates and test compounds. The reactions were incubated at room temperature for 3 hours and terminated by adding 60 μl of 35 mM EDTA buffer to each sample. The reactions were analyzed on the Caliper LabChip 3000 (Caliper, Hopkinton, Mass.) by electrophoretic separation of the fluorescent substrate and phosphorylated product. […] The final concentration of reagents in the assays are ATP, 22 μM; (5-FAM)-Aha-[…]-NH2, 1.5 μM; GST-Xa-hAAK1, 3.5 nM; and DMSO, 1.6%. Dose response curves were generated to determine the concentration required inhibiting 50% of kinase activity (IC50). Compounds were dissolved at 10 mM in dimethylsulfoxide (DMSO) and evaluated at eleven concentrations. IC50 values were derived by non-linear regression analysis.

T1 sequence (Q2M2I8 whole entry): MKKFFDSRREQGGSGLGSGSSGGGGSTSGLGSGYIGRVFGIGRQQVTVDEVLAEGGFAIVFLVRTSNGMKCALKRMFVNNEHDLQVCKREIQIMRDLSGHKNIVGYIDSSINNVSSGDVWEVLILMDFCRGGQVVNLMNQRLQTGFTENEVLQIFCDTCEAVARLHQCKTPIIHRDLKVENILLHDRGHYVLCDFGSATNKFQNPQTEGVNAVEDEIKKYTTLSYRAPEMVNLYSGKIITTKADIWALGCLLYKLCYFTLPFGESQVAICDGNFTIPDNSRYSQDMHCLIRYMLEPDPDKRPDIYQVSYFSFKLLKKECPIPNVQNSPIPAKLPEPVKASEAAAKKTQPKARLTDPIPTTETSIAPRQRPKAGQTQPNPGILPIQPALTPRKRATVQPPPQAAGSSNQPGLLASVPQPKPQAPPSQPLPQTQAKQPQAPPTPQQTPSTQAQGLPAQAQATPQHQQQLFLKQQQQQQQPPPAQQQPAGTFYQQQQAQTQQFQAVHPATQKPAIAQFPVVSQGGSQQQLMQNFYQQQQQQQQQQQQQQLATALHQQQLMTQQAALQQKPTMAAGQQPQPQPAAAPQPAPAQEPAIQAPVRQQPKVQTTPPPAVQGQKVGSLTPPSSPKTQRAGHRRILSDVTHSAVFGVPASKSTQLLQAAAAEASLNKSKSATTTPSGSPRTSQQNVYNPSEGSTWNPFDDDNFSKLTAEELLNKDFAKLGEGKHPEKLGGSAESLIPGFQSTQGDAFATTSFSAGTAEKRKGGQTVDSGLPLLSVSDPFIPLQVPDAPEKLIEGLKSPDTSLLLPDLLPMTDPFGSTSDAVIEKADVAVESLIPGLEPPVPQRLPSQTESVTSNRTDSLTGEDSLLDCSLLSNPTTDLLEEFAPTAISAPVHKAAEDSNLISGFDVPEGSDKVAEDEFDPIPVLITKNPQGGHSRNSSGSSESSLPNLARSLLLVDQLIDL

| IC50 [nM] | Compound |
| --- | --- |
| 1 to 10 | CC(C)C[C@H](N)COc1cc2oc(=O)c3cnccc3c2cc1Br [Example 25, (S)-8-(2-amino-4-methylpentyloxy)-9-bromo-5H-chromeno[3,4-c]pyridin-5-one] |
| < 1 | COC(=O)Nc1cc2c(cn1)COc1c-2ccc(OCC(C)(N)CC(C)C)c1OC (racemic) [Example 69, methyl (8-((2-amino-2,4-dimethylpentyl)oxy)-7-methoxy-5H-chromeno[3,4-c]pyridin-2-yl)carbamate] |
| 10 to 100 | CC(C)C[C@H](N)COc1ccc2c(c1)OC(C(C)C)c1cnccc1-2 (stereo partly drawn) [Example 55, (2S)-1-((5-isopropyl-5H-chromeno[3,4-c]pyridin-8-yl)oxy)-4-methylpentan-2-amine] |
| 1 to 10 | CC(=O)Nc1cc2c(cn1)COc1cc(OC[C@@H](N)CC(C)C)cc(F)c1-2 [Example 62, (S)—N-(8-((2-amino-4-methylpentyl)oxy)-10-fluoro-5H-chromeno[3,4-c]pyridin-2-yl)acetamide] |
| 1 to 10 | CC(C)C[C@H](N)COc1cc2c(cc1Cl)-c1ccncc1[C@H](C(F)(F)F)O2 (single isomer, unassigned) [Example 27a] |
| 1 to 10 | [2H]C([2H])(Oc1ccc2c(c1)OCc1cnc(NC(C)=O)cc1-2)C(C)(N)CC(C)C (racemic) [Example 78, N-(8-((2-amino-1,1-deutero-2,4-dimethylpentyl)oxy)-5H-chromeno[3,4-c]pyridin-2-yl)acetamide] |
| < 1 | [2H]C([2H])(Oc1ccc2c(c1C#N)OCc1cnc(NC(=O)OC)cc1-2)C(C)(N)CC(C)C (racemic) [Example 94, methyl (8-((2-amino-1,1-deutero-2,4-dimethylpentyl)oxy)-7-cyano-5H-chromeno[3,4-c]pyridin-2-yl)carbamate] |
| 10 to 100 | CCNc1cc2c(cn1)COc1cc(OC[C@@H](N)CC(C)C)ccc1-2 [Example 58, (S)-8-((2-amino-4-methylpentyl)oxy)-N-ethyl-5H-chromeno[3,4-c]pyridin-2-amine] |
| < 1 | CC(=O)Nc1cc2c(cn1)COc1c-2ccc(OC[C@@](C)(N)CC(C)C)c1Cl [Example 91, (S)—N-(8-((2-amino-2,4-dimethylpentyl)oxy)-7-chloro-5H-chromeno[3,4-c]pyridin-2-yl)acetamide] |
| 10 to 100 | CC(C)C[C@H](N)COc1ccc2c(c1)OC(C(C)C)c1cnccc1-2 (stereo partly drawn) [Example 51, (2S)-1-((5-isopropyl-5H-chromeno[3,4-c]pyridin-8-yl)oxy)-4-methylpentan-2-amine] |
| 1 to 10 | CC(=O)Nc1cc2c(cn1)COc1cc(OC[C@@](C)(N)CC(C)C)cc(F)c1-2 [Example 98, (S)—N-(8-((2-amino-2,4-dimethylpentyl)oxy)-10-fluoro-5H-chromeno[3,4-c]pyridin-2-yl)acetamide] |
| 1 to 10 | CC(C)C[C@](C)(N)COc1ccc2c(c1)OCc1cnc(N)cc1-2 [Example 90, (S)-8-((2-amino-2,4-dimethylpentyl)oxy)-5H-chromeno[3,4-c]pyridin-2-amine] |
| 100 to 1200 | Cc1cc2c(cn1)COc1cc(OC[C@@H](N)CC(C)C)ccc1-2 [Example 39, (S)-4-methyl-1-((2-methyl-5H-chromeno[3,4-c]pyridin-8-yl)oxy)pentan-2-amine] |
| 10 to 100 | CC(C)C[C@H](N)COc1ccc2c(c1)OC(C(F)(F)F)c1cnccc1-2 (stereo partly drawn) [Example 49, (2S)-4-methyl-1-((5-(trifluoromethyl)-5H-chromeno[3,4-c]pyridin-8-yl)oxy)pentan-2-amine] |
| < 1 | CC(C)C[C@](C)(N)COc1ccc2c(c1Cl)OCc1cnc(N)cc1-2 [Example 88, (S)-8-((2-amino-2,4-dimethylpentyl)oxy)-7-chloro-5H-chromeno[3,4-c]pyridin-2-amine] |
| 1 to 10 | COC(=O)Nc1cc2c(cn1)COc1c-2ccc(OC[C@@](C)(N)CC(C)C)c1Cl [Example 92, (S)-methyl (8-((2-amino-2,4-dimethylpentyl)oxy)-7-chloro-5H-chromeno[3,4-c]pyridin-2-yl)carbamate] |

| IC50 [nM] | Compound |
| --- | --- |
| 100 to 1200 | CC(C)C[C@@H](N)COc1ccc2c(c1)OC(C1CC1)c1cnccc1-2 (single isomer, unassigned) [Example 9b] |
| < 1 | COc1c(OC[C@@](C)(N)CC(C)C)ccc2c1OCc1cnc(NC(C)=O)cc1-2 [Example 85, (S)—N-(8-((2-amino-2,4-dimethylpentyl)oxy)-7-methoxy-5H-chromeno[3,4-c]pyridin-2-yl)acetamide] |
| 10 to 100 | CC(C)C[C@H](N)COc1ccc2c(c1)OC(C(F)(F)F)c1cnccc1-2 (single isomer, unassigned; diastereomer 2) [Example 53] |
| 10 to 100 | CC(C)C[C@H](N)COc1ccc2c(c1)OCc1cnc(NC(=O)C(C)C)cc1-2 [Example 61, (S)—N-(8-((2-amino-4-methylpentyl)oxy)-5H-chromeno[3,4-c]pyridin-2-yl)isobutyramide] |
| 100 to 1200 | CC(C)C[C@@H](N)COc1ccc2c(c1)OC(C1CC1)c1cnccc1-2 (some centres unmarked) [Example 9] |
| 1 to 10 | CC(C)CC(C)(N)COc1ccc2c(c1)OCc1cnc(N)cc1-2 (racemic) [Example 68, 8-((2-amino-2,4-dimethylpentyl)oxy)-5H-chromeno[3,4-c]pyridin-2-amine] |
| 1 to 10 | CC(C)C[C@](C)(N)COc1cc(F)c2c(c1)OCc1cnc(N)cc1-2 [Example 99, (S)-8-((2-amino-2,4-dimethylpentyl)oxy)-10-fluoro-5H-chromeno[3,4-c]pyridin-2-amine] |
| 100 to 1200 | CC(C)C[C@H](N)COc1ccc2c(c1)OC(C1CC1)c1cnccc1-2 (single isomer, unassigned) [Example 8a] |
| 100 to 1200 | CC(=O)Nc1cc2c(cn1)COc1cc(OC[C@H](CC(C)C)NC(C)=O)ccc1-2 [Example 100, (S)—N-(8-((2-acetamido-4-methylpentyl)oxy)-5H-chromeno[3,4-c]pyridin-2-yl)acetamide] |
| 100 to 1200 | CC(C)C[C@H](N)COc1ccc2c(c1)OC1(COC1)c1cnccc1-2 [Example 19, (S)-4-methyl-1-(spiro[chromeno[3,4-c]pyridine-5,3′-oxetan]-8-yloxy)pentan-2-amine] |
| 100 to 1200 | CC(C)C[C@H](N)COc1ccc2c(c1)OCc1cnc(NC(=O)c3cc(F)cc(F)c3)cc1-2 [Example 72, (S)—N-(8-((2-amino-4-methylpentyl)oxy)-5H-chromeno[3,4-c]pyridin-2-yl)-3,5-difluorobenzamide] |
| < 1 | COC(=O)Nc1cc2c(cn1)COc1c-2ccc(OC[C@@](C)(N)CC(C)C)c1C#N [Example 80, (S)-methyl (8-((2-amino-2,4-dimethylpentyl)oxy)-7-cyano-5H-chromeno[3,4-c]pyridin-2-yl)carbamate] |
| 1 to 10 | CC(C)C[C@H](N)COc1cc2c(cc1Cl)-c1cc(N)ncc1CO2 [Example 71, (S)-8-((2-amino-4-methylpentyl)oxy)-9-chloro-5H-chromeno[3,4-c]pyridin-2-amine] |
| 1 to 10 | COC(=O)Nc1cc2c(cn1)COc1c-2ccc(OC[C@@H](N)CC(C)C)c1C#N [Example 84, (S)-methyl (8-((2-amino-4-methylpentyl)oxy)-7-cyano-5H-chromeno[3,4-c]pyridin-2-yl)carbamate] |
| 100 to 1200 | CC(=O)Nc1nccc2c1C(C)Oc1cc(OC[C@@H](N)CC(C)C)ccc1-2 (stereo partly drawn) [Example 47, N-(8-(((S)-2-amino-4-methylpentyl)oxy)-5-methyl-5H-chromeno[3,4-c]pyridin-4-yl)acetamide] |

Same assay, conditions: ATP 22 μM; numeric values

| IC50 [nM] | Compound |
| --- | --- |
| 305 | CNc1nccc2c1COc1cc(OC[C@@H](N)CC(C)C)ccc1-2 [Example 54, (S)-8-((2-amino-4-methylpentyl)oxy)-N-methyl-5H-chromeno[3,4-c]pyridin-4-amine] |
| 2.1 | COC(=O)Nc1cc2c(cn1)COc1cc(OC[C@@](C)(N)CC(C)C)c(F)cc1-2 [Example 95, (S)-methyl (8-((2-amino-2,4-dimethylpentyl)oxy)-9-fluoro-5H-chromeno[3,4-c]pyridin-2-yl)carbamate] |
| 556 | Cc1cc2c(cn1)c(=O)oc1cc(OC[C@@](C)(N)CC(C)C)ccc12 [Example 102, (S)-8-((2-amino-2,4-dimethylpentyl)oxy)-2-methyl-5H-chromeno[3,4-c]pyridin-5-one] |
| 0.89 | CCOC(=O)Nc1cc2c(cn1)COc1c-2ccc(OC[C@@](C)(N)CC(C)C)c1Cl [Example 93, (S)-ethyl (8-((2-amino-2,4-dimethylpentyl)oxy)-7-chloro-5H-chromeno[3,4-c]pyridin-2-yl)carbamate] |
| 12 | CC(C)C[C@H](N)COc1ccc2c(c1)OC(C1CC1)c1c-2ccnc1N (stereo partly drawn) [Example 50, 8-(((S)-2-amino-4-methylpentyl)oxy)-5-cyclopropyl-5H-chromeno[3,4-c]pyridin-4-amine] |
| 2.3 | [2H]C([2H])(Oc1ccc2c(c1)OCc1cnc(NC(=O)OC)cc1-2)C(C)(N)CC(C)C (racemic) [Example 75, methyl (8-((2-amino-1,1-deutero-2,4-dimethylpentyl)oxy)-5H-chromeno[3,4-c]pyridin-2-yl)carbamate] |
| 0.39 | COC(=O)Nc1cc2c(cn1)COc1c-2ccc(OC[C@@](C)(N)CC(C)C)c1OC [Example 86, (S)-methyl (8-((2-amino-2,4-dimethylpentyl)oxy)-7-methoxy-5H-chromeno[3,4-c]pyridin-2-yl)carbamate] |
